In US20110218244A1, “CREATINE ß-ALANINATE: A NOVEL SALT FOR INCREASING […] PERFORMANCE” (priority 2009, published 2011):
Read-outs that look alike come from different tables or passages of the source.

Columns and labels:
individuals = conditions: cited from earlier work
[1] = test system: intramuscular carnosine content; conditions: after 10 week supplementation; cited from earlier work

Molecule: NCCC(=O)N[C@@H](Cc1cnc[nH]1)C(=O)O [carnosine, β-alanyl-L-histidine]
- paraesthesia symptoms (individuals; greater quantities, ingested as dipeptides in meat): do not cause the same symptoms

Molecule: NCCC(=O)O [β-alanine, 3-Aminopropanoic acid]
- amount above which ingestion causes paraesthesia (individuals; in solution or as powder in gelatin capsules): above 10 mg per kg body weight
- time at which paraesthesia begins after oral administration (individuals; oral): about 20 minutes
- increase in intramuscular carnosine content, average [1]: 80%

Molecule: creatine β-alaninate
- more β-alanine administrable before eliciting symptoms of paraesthesia, compared with β-alanine alone (human subjects; administered as creatine β-alaninate): roughly 100%
- single dose administered before the onset of parasthesia was noted (human subjects; oral, gelatin capsules, human subjects): up to 55.00 mg/kg
- equivalent β-alanine dose before the onset of parasthesia (human subjects; salt mass consists of about 40.45% β-alanine): about 22.25 mg/kg

Molecule: anserine
- paraesthesia symptoms (individuals; in vivo): do not cause the same symptoms
